{
  "source": "patent US20240173317A1",
  "about": "“METHODS FOR TREATING PROGRESSIVE FAMILIAL INTRAHEPATIC CHOLESTASIS” (MIRUM PHARMACEUTICALS, INC., priority 2022, published 2024)",
  "key": {"[1]": {"assay": "Height and weight Z-score, MARCH-PFIC Phase 3 study", "format": "in vivo, human", "details": "BSEP deficiency group and PFIC group vs placebo"}, "[2]": {"test_system": "subjects with PFIC", "assay": "Treatment-emergent adverse events (TEAEs), MARCH-PFIC Phase 3 study", "format": "in vivo", "from_the_text": "A TEAE can therefore be any unfavorable and unintended sign (including an abnormal laboratory finding), symptom, or disease temporally associated with the use of a medicinal (investigational) product, whether or not related to the medicinal (investigational) product (ICH Guidance E2A 1995). All TEAEs are collected from the time the informed consent is signed until the defined follow-up period. This includes events occurring during the screening phase of the study, regardless of whether or not study medication is administered.\nA serious adverse event (SAE) is any untoward medical occurrence (whether considered to be related to study medication or not) that at any dose: 1) Results in death; 2) Is life-threatening; 3) Requires inpatient hospitalization or prolongation of existing hospitalization; 4) Results in persistent or significant disability/incapacity; or 5) Is an important medical event.\nAll SAEs (regardless of relationship to study) are collected from the time the subject signs the informed consent until the defined follow-up period and must be reported within 24 hours of the first awareness of the event."}, "[3]": {"test_system": "patients with a truncated BSEP (t-BSEP) deficiency", "assay": "sBA in individual t-BSEP patients (week 26 and week 58 of treatment)", "format": "in vivo, human"}, "[4]": {"test_system": "participants with PFIC 1 or PFIC 2", "details": "cited from earlier work"}, "[5]": {"details": "MARCH, all PFIC cohorts, Maralixibat (n = 47)"}, "[6]": {"details": "MARCH, all PFIC cohorts, Maralixibat (n = 47), listed as Maralixibat"}, "[7]": {"details": "among the 8 participants receiving MRX who had transaminase elevations"}},
  "note": "Like-named read-outs stand apart in the source and are kept apart here.",
  "data": [
    {"molecule": "CCCCC1(CCCC)CS(=O)(=O)c2ccc(N(C)C)cc2[C@@H](c2ccc(OCc3ccc(C[N+]45CCN(CC4)CC5)cc3)cc2)[C@H]1O", "note": "[maralixibat, 1-(4-((4-((4R,5R)-3,3-dibutyl-7-(dimethylamino)-4-hydroxy-1,1-dioxido-2,3,4,5-tetrahydrobenzo[b]thiepin-5-yl)phenoxy)methyl)benzyl)-1,4-diazabicyclo[2.2.2]octan-1-ium]", "values": [
      {"measurement": "change of participant height Z-score over time", "setting": "[1]; FIG. 24A-C", "value": "overall positive trend for increase"},
      {"measurement": "change of participant weight Z-score over time", "setting": "[1]; FIG. 25A-C", "value": "gained significantly more weight over time than placebo participants"},
      {"measurement": "median duration of diarrhea", "setting": "[2]; MARCH", "value": 5.5, "unit": "days"},
      {"measurement": "patients who discontinued MRX due to transaminase elevation", "setting": "[2]; MARCH", "value": "No patients"},
      {"measurement": "tolerability", "setting": "[2]; MARCH", "value": "well-tolerated"},
      {"measurement": "Any TEAE, %", "setting": "[2]; [5]", "value": "(100%)"},
      {"measurement": "Diarrhoea related to study drug, %", "setting": "[2]; [5]", "value": "(27.7%)"},
      {"measurement": "GI disorders (most common TEAEs), %", "setting": "[2]; [5]", "value": 74.5, "unit": "%"},
      {"measurement": "GI events potentially related to study drug, %", "setting": "[2]; [5]", "value": "(29.8%)"},
      {"measurement": "Grade 3/4 TEAE, %", "setting": "[2]; [5]", "value": "(6.4%)"},
      {"measurement": "Serious TEAE (SAE), %", "setting": "[2]; [5]", "value": 10.6, "unit": "%"},
      {"measurement": "TEAE leading to discontinuation, %", "setting": "[2]; [5]", "value": "(2.1%)"},
      {"measurement": "TEAE potentially related to study drug, %", "setting": "[2]; [5]", "value": "(38.3%)"},
      {"measurement": "Serious TEAE (SAE), %", "setting": "[2]; MARCH, all PFIC cohorts, Maralixibat (n = 47), listed as MRX", "value": 10.6, "unit": "%"},
      {"measurement": "Diarrhoea, %", "setting": "[2]; [6]", "value": "(57.4%)"},
      {"measurement": "Serious TEAE (SAE), %", "setting": "[2]; [6]", "value": "(10.6%)"},
      {"measurement": "Constipation, %", "setting": "[2]; MARCH, MRX (n = 47)", "value": "(8.5) %"},
      {"measurement": "Gastroenteritis, %", "setting": "[2]; MARCH, MRX (n = 47)", "value": "(6.4) %"},
      {"measurement": "Haematochezia, %", "setting": "[2]; MARCH, MRX (n = 47)", "value": "(6.4) %"},
      {"measurement": "Increased ALT, %", "setting": "[2]; MARCH, MRX (n = 47)", "value": "(12.8) %"},
      {"measurement": "Vomiting, %", "setting": "[2]; MARCH, MRX (n = 47)", "value": "(6.4) %"},
      {"measurement": "participants with resolution of the transaminase elevation without drug interruption", "setting": "[2]; [7]", "value": 6},
      {"measurement": "patients with ongoing stable transaminase elevation even after drug interruption or dose reduction", "setting": "[2]; [7]", "value": 2},
      {"measurement": "sBA change in individual t-BSEP patients", "setting": "[3]; Baseline to Week 26, FIG. 42D", "value": "reductions from Baseline to Week 26 in sBA"},
      {"measurement": "sBA reduction in individual t-BSEP patients", "setting": "[3]; all patients receiving maralixibat (MRX-MRX) or switching from placebo (PBO-MRX), Table 15", "value": "meaningful sBA reduction"},
      {"measurement": "response in Indigo Phase 2 study", "setting": "[4]; participants with PFIC 2", "value": "had a response"},
      {"measurement": "response in Indigo Phase 2 study", "setting": "[4]; patients with PFIC 1", "value": "did not have a response"}
    ]}
  ]
}
